# Measured values as given in PubChem BioAssay (NCI).
#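 In this assay, cells in 96-well plates receive the compound at five concentrations for 48 hours. Endpoints are linearly interpolated between the surrounding concentrations. TGI: concentration producing complete growth inhibition.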
# Experiments:
# Assay in all cases: growth of human tumour cells (NCI), 48 h
# 786-0 renal = system: 786-0 renal
# A498 renal = system: A498 renal
# A549 NSCLC = system: A549 NSCLC
# ACHN renal = system: ACHN renal
# HCT-116 colon = system: HCT-116 colon
# HCT-15 colon = system: HCT-15 colon
# HOP-92 NSCLC = system: HOP-92 NSCLC
# MALME-3M melanoma = system: MALME-3M melanoma
# OVCAR-4 ovarian = system: OVCAR-4 ovarian
# OVCAR-5 ovarian = system: OVCAR-5 ovarian
# RXF 393 renal = system: RXF 393 renal
# SF-539 CNS = system: SF-539 CNS
# SK-MEL-5 melanoma = system: SK-MEL-5 melanoma
# U251 CNS = system: U251 CNS
# UO-31 renal = system: UO-31 renal
# K-562 leukemia = system: K-562 leukemia
SMILES,TGI (786-0 renal) [µM],TGI (A498 renal) [µM],TGI (A549 NSCLC) [µM],TGI (ACHN renal) [µM],TGI (HCT-116 colon) [µM],TGI (HCT-15 colon) [µM],TGI (HOP-92 NSCLC) [µM],TGI (MALME-3M melanoma) [µM],TGI (OVCAR-4 ovarian) [µM],TGI (OVCAR-5 ovarian) [µM],TGI (RXF 393 renal) [µM],TGI (SF-539 CNS) [µM],TGI (SK-MEL-5 melanoma) [µM],TGI (U251 CNS) [µM],TGI (UO-31 renal) [µM],TGI (K-562 leukemia) [µM]
COc1ccc(NC(=O)CC(=O)n2nc(C)c(N=Nc3cccc(C)c3)c2C)cc1,> 100,> 100,> 100,> 100,> 100,> 100,> 100,> 100,> 100,> 100,> 100,> 100,> 100,> 100,> 100,
CCCC(O)c1cn(C(NC(=O)c2ccccc2)P(=O)(OCC)OCC)nn1 (centres undefined),> 100,> 100,> 100,> 100,> 100,> 100,> 100,> 100,> 100,,> 100,> 100,> 100,> 100,> 100,> 100
O=C1Nc2ccccc2Cn2c1cc1oc(-c3ccccc3)cc12,45.4,> 100,> 100,> 100,,> 100,73.7,> 100,> 100,> 100,53,74.3,> 100,36.3,,> 100
Cc1nc2c(o1)C(=Nc1ccccc1)c1ccccc1C2=O,28.5,54.4,38.3,19.6,23.2,22.6,25.9,12.3,,32.4,44,16.7,5.78,9.4,20.6,> 100
C[n+]1c(-c2ccc(/C=N/Nc3ccnc(N/N=C/c4ccc(-c5cn6ccsc6[n+]5C)cc4)n3)cc2)cn2ccsc21,46.6,65.3,91.2,78.6,,> 100,> 100,> 100,> 100,> 100,51.9,> 100,54.5,> 100,> 100,39.7
O=C1c2ccccc2C(=O)c2sc(Nc3ccccc3C(F)(F)F)nc21,41,28.9,57.2,33,> 100,> 100,23.7,29.9,,44.6,39,45.8,22.7,22.4,25.2,14.8
Cc1c(-c2ccccc2)nn2cc(-c3ccccc3)nnc12,> 100,> 100,52.5,> 100,> 100,44.5,88.3,39.6,> 100,> 100,47.8,,41.4,85.7,> 100,> 100
O=C(c1ccccc1)n1cc(-c2ccccc2)c2c(=O)[nH]cnc21,> 100,> 100,> 100,> 100,> 100,> 100,> 100,> 100,> 100,> 100,> 100,> 100,> 100,> 100,> 100,
